Patent publication US9447408B2, “Method of efficiently establishing induced pluripotent stem cells” (Kyoto University, priority 2010, dated 2016)

How the values were obtained:
[1] = tested on: Human dermal fibroblasts (Tig109 line); assay: Human iPS cell colony formation, 4 genes introduced, various p38 inhibitors; assay type: cell-based; conditions: for number of iPS cell colonies on day 40 after the infection: no colonies in either control group
Experimental: Human dermal fibroblasts (Tig109 line) were treated using a lentivirus (pLenti6/UbC-Slc7a1) according to the method described by Takahashi, K. et al. in Cell, 131: 861-872 (2007), to express the mouse ecotropic virus receptor Slc7a1 gene. These cells (2×10^5 cells/10 cm dish) were transfected with the four genes using a retrovirus according to the method described by Takahashi, K. et al. in Cell, 131: 861-872 (2007); each compound was added per the schedule shown below. • 1. Oct3/4, Sox2, Klf4, c-Myc, each derived from human, saline • 2. Oct3/4, Sox2, Klf4, c-Myc, each derived from human, DMSO (Day 5-35) • 3. Oct3/4, Sox2, Klf4, c-Myc, each derived from human, SB202190 10 μM (Day 5-20) • 4. Oct3/4, Sox2, Klf4, c-Myc, each derived from human, SB239063 10 μM (Day 5-20) • 5. Oct3/4, Sox2, Klf4, c-Myc, each derived from human, SB202190 10 μM (Day 21-35) • 6. Oct3/4, Sox2, Klf4, c-Myc, each derived from human, SB239063 10 μM (Day 21-35) • 7. Oct3/4, Sox2, Klf4, c-Myc, each derived from human, SB202190 10 μM (Day 5-35) • 8. Oct3/4, Sox2, Klf4, c-Myc, each derived from human, SB239063 10 μM (Day 5-35) On days 24, 32, and 40 after the infection, iPS cell colonies were counted. When the four factors (Oct3/4, Sox2, Klf4, C-Myc) were combined with SB239063 added on days 5 to 20 after the infection, the number of human iPS cell colonies increased on day 24 after the infection.

[2] = tested on: Mouse embryonic fibroblasts (MEFs); assay: iPS cell establishment from Nanog-GFP reporter MEFs, 4 genes (Oct3/4, Sox2, Klf4, c-Myc) introduced, with p38 inhibitors; assay type: cell-based; conditions: for number of Nanog-GFP-positive colonies compared with physiological saline or DMSO: 10 μM inhibitor added on days 1 to 4 after the infection
Experimental: Mouse embryonic fibroblasts (MEFs) from a Nanog reporter mouse carrying Nanog-GFP—IRES-Puro^r [Okita K. et al, Nature 448, 313-317 (2007)] were transfected with four genes using a retrovirus to induce iPS cells.
Each retrovirus for reprogramming was prepared by transferring each of retroviral expression vectors (pMXs-Oct3/4, pMXs-Sox2, pMXs-Klf4, pMXs-cMyc:Cell, 126, 663-676 (2006)) to Plat-E cells (Morita, S. et al., Gene Ther. 7, 1063-1066) that had been seeded to a 6-well culture plate (Falcon) at 0.6×10^6 cells per well on the day before. The cells were cultured at 37° C. in the presence of 5% CO2 using DMEM/10% FCS [a culture broth prepared by adding 10% fetal calf serum to DMEM (Nacalai Tesque)]. To facilitate vector transfer, 4.5 μL of FuGene6 transfection reagent (Roche) was placed in 100 μL of Opti-MEM I Reduced-Serum Medium (Invitrogen), and the medium was allowed to stand at room temperature for 5 minutes. Subsequently, 1.5 μg of each expression vector was added, and the medium was allowed to further stand at room temperature for 15 minutes, after which they were added to the Plat-E culture broth. On day 2, the Plat-E supernatant was replaced with a fresh supply of the medium. On day 3, the culture supernatant was recovered and filtered through a 0.45 μm sterile filter (Whatman), and polybrene (Nacalai) was added at 4 μg/mL to yield a viral liquid.
Mouse embryonic fibroblasts (MEFs) were isolated from a fetal Nanog reporter mouse (13.5 days after fertilization). […] Not expressing the puromycin resistance gene as well, MEFs are susceptible to the antibiotic puromycin. As such, MEFs were seeded to a 6-well culture plate (Falcon), previously coated with 0.1% gelatin (Sigma), at 1.0×10^5 cells per well. DMEM/10% FCS served as the culture broth at 37° C. in the presence of 5% CO2. The following day, each retrovirus liquid was added, and this was followed by overnight infection to introduce the genes.
On day 1 after the viral infection, the medium for the MEFs was removed, and the cells were washed by the addition of 1 mL of PBS. After removing the PBS, 0.25% Trypsin/1 mM EDTA (Invitrogen) was added, and a reaction was carried out at 37° C. for about 5 minutes. After the cells floated up, the cells were suspended by the addition of an ES cell culture medium and 2500 cells were seeded to a 100 mm dish having mitomycin C-treated STO feeder cells seeded thereto previously. Cultivation was continued while replacing the ES cell culture medium with a fresh supply of the same medium every two days until a visible colony emerged.
To determine the effects of p38 inhibitors on the establishment of iPS cells by the introduction of the four mouse genes, cultivation was continued with the addition of 10 μM of the p38 inhibitor 5B202190, SB239063, or SB203580 (Calbiochem Company) to the medium per the schedule shown below. All these inhibitors were used in solution in DMSO. • 1. Oct3/4, Sox2, Klf4, c-Myc, each derived from mouse, saline • 2. Oct3/4, Sox2, Klf4, c-Myc, each derived from mouse, DMSO • 3. Oct3/4, Sox2, Klf4, c-Myc, each derived from mouse, SB202190 10 μM Day 1-4) • 4. Oct3/4, Sox2, Klf4, c-Myc, each derived from mouse, SB202190 10 μM (Day 1-8) • 5. Oct3/4, Sox2, Klf4, c-Myc, each derived from mouse, SB202190 10 μM (Day 9-16) • 6. Oct3/4, Sox2, Klf4, c-Myc, each derived from mouse, SB202190 10 μM (Day 1-16) • 7. Oct3/4, Sox2, Klf4, c-Myc, each derived from mouse, SB239063 10 μM (Day 1-4) • 8. Oct3/4, Sox2, Klf4, c-Myc, each derived from mouse, SB239063 10 μM (Day 1-8) • 9. Oct3/4, Sox2, Klf4, c-Myc, each derived from mouse, SB239063 10 μM (Day 9-16) • 10. Oct3/4, Sox2, Klf4, c-Myc, each derived from mouse, SB239063 10 μM (Day 1-16) • 11. Oct3/4, Sox2, Klf4, c-Myc, each derived from mouse, SB203580 10 μM (Day 1-4) • 12. Oct3/4, Sox2, Klf4, c-Myc, each derived from mouse, SB203580 10 μM (Day 1-8) • 13. Oct3/4, Sox2, Klf4, c-Myc, each derived from mouse, SB203580 10 μM (Day 9-16) • 14. […]

Row | Structure (SMILES) | number of iPS cell colonies on day 32 after the infection ([1]; 10 μM inhibitor) | number of iPS cell colonies on day 40 after the infection ([1]; 10 μM inhibitor) | effect on iPS cell colony number on day 32, inhibitor added day 21 to day 35 ([1]; 10 μM, Day 21-35) | number of Nanog-GFP-positive colonies compared with physiological saline or DMSO [2] | number of human iPS cell colonies on day 24 after the infection ([1]; 10 μM added on days 5 to 20) | effect on colony count when measured on day 28 after the infection ([2]; 10 μM inhibitor on days 1 to 4, counted day 28) | colony count compared with cells treated with physiological saline or DMSO ([2]; 10 μM inhibitor on days 1 to 4 after the infection, FIG. 1)
1 | Oc1ccc(-c2nc(-c3ccc(F)cc3)c(-c3ccncc3)[nH]2)cc1 [SB202190, 4-(4-fluorophenyl)-2-(4-hydroxyphenyl)-5-(4-pyridyl)imidazole] | capable of increasing the number of iPS cell colonies | increased remarkably | remarkable effects | increased |  |  | 
2 | COc1nccc(-c2c(-c3ccc(F)cc3)ncn2[C@H]2CC[C@H](O)CC2)n1 [SB239063, trans-1-(4-Hydroxycyclohexyl)-4-(4-fluorophenyl)-5-(2-methoxypyrimidin-4-yl)imidazole] |  | two |  | increased | increased | remarkable | tended to increase
